Where two headings read alike, the source gives them in different places.
Assays:
[1] = tested on: T47D ESR1 Y537S cells; assay: Live-cell imaging growth studies and EC50 for growth inhibition, T47D ESR1 Y537S; type: cell-based; details: Homo sapiens, read-out: Approximate Half-maximal Effective Concentration (EC50) for growth inhibition
Protocol: (§1) MCF7, T47D, T47D ESR1 Y537S or T47D ESR1 D538G cells were seeded at 2×10^5 density per well in 6-well tissue culture-treated plates in DMEM/F12/10% FBS (2 mL total volume). […] The plate was then placed in the Incucyte® S3 Live-Cell Analysis System and images were acquired every 4 hours for a total of 5 days (120 hours). Data were analyzed using the Incucyte® Software v2020C which quantified cell surface area coverage as confluence values. Relative growth was calculated for all timepoints for all growth conditions relative to the confluence value observed for the control at 120 hours. Graphing and statistical analyses were performed using Graphpad Prism (GraphPad Software).

[2] = tested on: ESR1 variants Y537S and D538G; assay: In vitro ERα degradation in ESR1 variant cell lines; type: cell-based, human; details: FIG. 15
[3] = tested on: MCF7 xenograft; assay: MCF7 orthotopic xenograft, combination with CDK4/6 inhibitor; type: in vivo, NOD/SCID mice
[4] = 28-day oral toxicology study in rats; type: in vivo; details: oral once daily 28 days
[5] = tested on: ER-dependent cell lines; assay: Cell proliferation of ER-dependent cell lines; type: cell-based
[6] = tested on: MCF7 xenograft; assay: MCF7 orthotopic xenograft, combination with PI3K inhibitor alpelisib; type: in vivo, NOD/SCID mice
Protocol: NOD/SCID female mice (Charles River, 6-7 weeks old upon arrival) were implanted with 17b-estradiol 0.72 mg 90-day pellets. The next day, each mouse was implanted with 5×10^6 MCF7 cells/[…] in the axial mammary fat pad. Compound administration was initiated once the tumors reached 175-200 mm^3. Diet was supplemented with peanut butter to help maintain body weights. Dosing holidays occurred on days 6, 7, 8 and 9 due to body weight loss in some animals in study arms 3 and 4. […] (FIG. 31 and Table 15).
Dosing holidays occurred on days 6, 7, 8 and 9. Error bars represent standard deviation.
The ratio of Tween 80 to PEG-400 is 0.02 g Tween 80 to 1 ml PEG-400. PEG-400 is added to a pre-aliquoted volume of Tween 80. • For alpelisib: 1% carboxymethylcellulose (CMC), 0.5% Tween 80/DI water (‘CMC/Tween’) Sampling: tumors were measured twice weekly. Terminal sacrifice was ˜18 hr after last dose. Tumor volume calculation: Tumor Volume=(width×width×length)/2, where all measurements are in mm and the tumor volume is in mm^3. Tumor Growth Inhibition (TGI) calculation: TGI (%)

[7] = Phase I clinical trial pharmacokinetics; details: human, in vivo, po, 30 mg, 30 mg oral once daily
Description: A Phase I Clinical Trial with Compound (I-c) was undertaken. A traditional 3+3 dose escalation design was implemented. […] Dose increases were dependent on toxicities.
The key entry criteria for this trial were: ER+/HER2− advanced breast cancer; at least two prior endocrine therapies in any setting, and a CDK4/6 inhibitor; and up to three prior cytotoxic chemotherapy regimens.
The initial pharmacokinetic results are shown below in Table 2, as well as in FIG. 3 and FIG. 4.

[8] = tested on: tamoxifen-resistant MCF7 xenografts; assay: Tamoxifen-resistant MCF7 orthotopic xenograft tumor growth inhibition; type: in vivo, Nu/Nu mice
Protocol: Species: Ovariectomized Nu/Nu female mice. Animal handling: Axial mammary fat pad implantation of tamoxifen-resistant tumor fragment (from E45 passage. SC per mouse. Tamoxifen pellet (5 mg, 60-day release) was implanted under the same anesthesia as tumor fragment (pellet—dorsal; tumor—ventral).
Dosing: Oral (gavage), once a day for 28 days (QD×28)
Sampling: Tumors were measured twice weekly. Terminal sacrifice was ˜18 hr after last dose; tumors were harvested, divided, and flash frozen. ERα levels were determined by immunoblotting (see Appendix 1 for details).

[9] = 28-day oral toxicology study in dogs; type: in vivo; details: oral once daily 28 days
[10] = tested on: T47D cells; assay: Live-cell imaging growth studies and EC50 for growth inhibition, T47D; type: cell-based; details: Homo sapiens, read-out: Approximate Half-maximal Effective Concentration (EC50) for growth inhibition
Protocol: as §1

[11] = tested on: ESR1 (Y537S) PDX; assay: ESR1 (Y537S) PDX model tumor growth inhibition; type: in vivo; details: for tumor growth inhibition (TGI): ESR1 (Y537S) PDX, 28 days
[12] = Compound (I-c) 30 mg/kg oral QD x 28
[13] = Compound (I-c) 30 mg/kg oral QD x 19

O=C1CC[C@H](N2Cc3cc(N4CCN(CC5CCN(c6ccc([C@@H]7c8ccc(O)cc8CC[C@@H]7c7ccccc7)cc6)CC5)CC4)ccc3C2=O)C(=O)N1 [Compound (I-c), (3S)-3-[5-[4-[[1-[4-[(1R,2S)-6-hydroxy-2-phenyl-tetralin-1-yl]phenyl]-4-piperidyl]methyl]piperazin-1-yl]-1-oxo-isoindolin-2-yl]piperidine-2,6-dione]
EC50 [1]: 0.05 µM
degradation of clinically-relevant ESR1 variants Y537S and D538G [2]: degrades
Day 28 Tumor volume (mean ± SD) [3, 12]: 170 ± 62 mm^3
TGI (% vehicle) [3, 12]: 105 % vehicle
tumor growth inhibition (TGI) ([3]; single agent 30 mg/kg oral QD x 28): 105%
clinical signs of toxicity ([4]; doses up to 100 mg/kg/day): no clinical signs of toxicity
effects on overall animal health or well-being ([4]; up to 100 mg/kg/day): no effects on the overall animal health or well-being
cell proliferation of ER-dependent cell lines [5]: inhibits
Day 19 Tumor Volume (mean ± SD) [6, 13]: 207 ± 62 mm^3
TGI (% vehicle) [6, 13]: 95 % vehicle
tumor growth inhibition (TGI) ([6]; single agent 30 mg/kg oral once daily, 19 days, dosing holidays days 6-9): 95%
AUC ([7]; Phase I, read-out: Mean Day 1 AUCTAU): 1690 ng·h/mL
Cmax ([7]; Phase I, read-out: Mean Day 1 Cmax): 109 ng/mL
Cmax ([7]; Phase I, read-out: Mean Day 15 Cmax): 224 ng/mL
AUC ([7]; calculated using imputed 24 hour values, read-out: Mean Day 15 AUCTAU): 4100 ng·h/mL
Day 28 Tumor volume (mean ± SD) [8, 12]: 361 ± 181 mm^3
TGI (% vehicle) [8, 12]: 65 % vehicle
tumor growth inhibition (TGI) ([8]; tamoxifen-resistant MCF7, 30 mg/kg/day oral, 28 days): 65%
clinical signs of toxicity ([9]; doses up to 90 mg/kg/day): no clinical signs of toxicity
effects on overall animal health or well-being ([9]; up to 90 mg/kg/day): no effects on the overall animal health or well-being
EC50 [10]: 0.01 µM
tumor growth inhibition (TGI) ([11]; 10 mg/kg oral once daily): 99%
tumor growth inhibition (TGI) ([11]; 30 mg/kg oral once daily): 106%
tumor growth ([11]; ESR1 Y537S hormone-independent PDX, 10 mg/kg): completely inhibited growth
